These results are taken from patent US8394809B2, “Phenoxy-substituted pyrimidines as opioid receptor modulators” (priority 2009, dated 2013).

The target of one test is T1, mu opioid receptor (Rattus norvegicus, UniProt P33535).
T1 construct: the forebrains were homogenized in Tris buffer in a Teflon®-glass homogenizer; from tissue; host or cells: forebrain of male Wistar rats, particulate membrane preparation
As to the kind of experiment: Rat brain mu opioid receptor binding assay. On the procedure:
(§1) Procedure: Male, Wistar rats (150-250 g, VAF, Charles River, Kingston, N.Y.) were killed by CO2, and their brains were removed and placed immediately in ice cold Tris HCl buffer (50 mM, pH 7.4). The forebrains were separated from the remainder of the brain by a coronal transection, beginning dorsally at the colliculi and passing ventrally through the midbrain-pontine junction. After dissection, the forebrains were homogenized in Tris buffer in a Teflon®-glass homogenizer. The homogenate was diluted to a concentration of 1 g of forebrain tissue per 80 mL Tris and centrifuged at 39,000×g for 10 min. The pellet was resuspended in the same volume of Tris buffer containing 5 mM MgCl2 with several brief pulses from a Polytron homogenizer. This particulate preparation was used for the mu opioid binding assays. Following incubation with the mu selective peptide ligand, ˜0.8 nM [^3H]DAMGO, at 25° C. for 2.5 h in a 96-well plate with total assay volume of 1 mL, the plate contents were filtered through Wallac filtermat B sheets on a Tomtec 96-well harvester. […] To each sample area 2×40 μL of Betaplate Scint scintillation fluid (LKB) was added and the radioactivity was quantifed on a LKB (Wallac) 1205 BetaPlate liquid scintillation counter.
(§2) Analysis: The data from the scintillation counter was used to calculate either the % inhibition compared to control binding (when only a single concentration of test compound was evaluated) or a Ki value (when a range of concentrations was tested). Percent inhibition was calculated as: [(total dpm−test compound dpm)/(total dpm-nonspecific dpm)]*100. Kd and Ki values were calculated using GraphPad PRISM data analysis program.

Test [1] addresses T2, delta opioid receptor (Rattus norvegicus, UniProt P33533).
T2 construct: the forebrains were homogenized in Tris buffer in a Teflon®-glass homogenizer; from tissue; host or cells: forebrain of male Wistar rats, particulate membrane preparation
As to the kind of experiment: Rat brain delta opioid receptor binding assay. On the procedure: as §1, with “delta” for “mu”, “ligand ˜4” for “ligand, ˜0.8”, “[^3H]DPDPE or 0.25 nM [^3H]naltrindole” for “[^3H]DAMGO,”, “total” for “total assay”, “2×50” for “2×40”, “quantified” for “quantifed”
as §2

The target in test [2] is T3, delta opioid receptor (Mus musculus, UniProt P32300).
T3 construct: NG108-15 cell membranes were purchased from Applied Cell Sciences (Rockville, Md.); host or cells: NG108-15 cell membranes (purchased)
As to the kind of experiment: [35S]GTPγS binding assay in NG108-15 cell membranes (delta opioid functional assay). Type of test: biochemical. The following applies: for GTPγS δ-Rel Efficacy @200 nM: 200 nM compound, relative to calculated max of SNC80 dose response. On the procedure:
Methods: NG108-15 cell membranes were purchased from Applied Cell Sciences (Rockville, Md.). 5 mg/mL of membrane protein was suspended in 10 mM TRIS-HCl pH 7.2, 2 mM EDTA, 10% sucrose. Membranes were maintained at 4-8° C. A 1 mL volume of membranes was added into 10 mL cold binding assay buffer. The assay buffer contained 50 mM Tris, pH 7.6, 5 mM MgCl2, 100 mM NaCl, 1 mM DTT and 1 mM EGTA. The membrane suspension was homogenized twice with a Polytron, and centrifuged at 3000 rpm for 10 min. The supernatant was then centrifuged at 18,000 rpm for 20 min. Ten mL assay buffer was added into the pellet containing tube. The pellet and buffer were mixed with a Polytron.
Incubation procedure: The pellet membranes (75 μg/mL) were preincubated with SPA (10 mg/mL) at 25° C. for 45 min in the assay buffer. […] 200 nM of receptor agonists was used to stimulate [^35S]-GTPγS binding. The basal binding was tested in the absence of agonists and non-specific binding was tested in the presence of 10 μM unlabeled GTPγS.
Data % of Basal=(stimulated−non specific)*100/(basal−non specific). Relative Efficacy of a compound at 200 nM=(% of Basal of test compound at 200 nM)/(Calculated Max of SNC80 dose response. Curve in prism).

The target in test [3] is T3, delta opioid receptor. Described as above. Type of test: biochemical. Conditions: for inhibition at 10 µM: read-out: GTPγS δ-opioid receptor % Inh @10 μM, 10 μM.
Test [4] addresses T4, mu opioid receptor (CHO-hMOR cell membranes) (Homo sapiens, UniProt P35372).
T4 construct: host or cells: CHO cells (membranes purchased)
As to the kind of experiment: [35S]GTPγS binding assay in CHO-hMOR cell membranes (mu opioid functional assay). In kind it is biochemical. (In general: GTPγS is a poorly hydrolysed GTP analogue; its binding reports G protein activation.)

For test [5], the target named is T3, delta opioid receptor. As to the kind of experiment: NG108-15, 24-well delta opioid receptor binding assay. The following applies: NG108-15 cell membranes, ~0.2 nM [3H]Naltrindole; read-out: δ-binding NG108 cell membrane Ki. On the procedure: Methods: NG108-15 cell membranes were purchased from Applied Cell Sciences (Rockville, Md.). 5 mg/mL of membrane protein was suspended in 10 mM TRIS-HCl pH 7.2, 2 mM EDTA, 10% sucrose. With several brief pulses from a Polytron homogenizer, each vial was homogenized in 5 mls of 50 mM Tris Buffer, pH 7.4. The homogenate was diluted in 50 mM Tris Buffer containing 5 mM MgCl2 to 330 ug/ml in the working solution for a final concentration of 133 ug/well. This particulate preparation was used for the 24-well delta opioid binding assay.
Following incubation with the delta selective ligand ˜0.2 nM [^3H]Naltrindole at 25° C. for 2.5 h in a 24-well plate with total volume of 1 mL, the plate contents were filtered through a UniFilter24, GF/B. This plate was presoaked in 0.3% PEI and filtered through a 24-well Harvester. The UniFilter24 was rinsed three times with 2 mL of 10 mM HEPES (pH 7.4), and dried in an oven at 37° C. for 1.5 hours. To each well, was added 150 μL of Scint0 (PerkinElmer, Cat#6013611). The plates were then read on a TopCount.
Analysis: The data from the scintillation counter were used to calculate either the % inhibition compared to control binding (when only a single concentration of test compound was evaluated) or a Ki value (when a range of concentrations was tested). Non-specific binding (N.S.—1 mM Naloxone) is used as the negative control, while the Total Binding (T.B.—Membrane and ligand only) is used as the positive control. If one concentration is screened, the % inhibition is calculated as (cpms of total binding minus cpms of compound) divided by (cpms of T.B. minus cpms of N.S). The triplicate % Inhibitions are averaged and reported. If multiple concentrations are generated, the values are analyzed using the one-site binding non-linear regression program in Prism to determine Ki values. The bottom and top values are globally shared. The triplicate Kis are then averaged and reported.

Setting [6] is: read-out: GTPγS δ-opioid receptor EC50.
Setting [7] is: rat forebrain membranes, ~0.8 nM [3H]DAMGO, read-out: μ-binding Ki.
Setting [8] is: rat forebrain membranes, 0.25 nM [3H]naltrindole, read-out: δ-binding (Naltrindole ligand) Ki.

pEC50, pKi: −log10 of the molar value. “And” between values parts separate entries of the source, which are not always exact repeats. Equal values may be shown once. Read-outs that look alike come from different tables or passages of the source.

T3 sequence (P32300 whole entry): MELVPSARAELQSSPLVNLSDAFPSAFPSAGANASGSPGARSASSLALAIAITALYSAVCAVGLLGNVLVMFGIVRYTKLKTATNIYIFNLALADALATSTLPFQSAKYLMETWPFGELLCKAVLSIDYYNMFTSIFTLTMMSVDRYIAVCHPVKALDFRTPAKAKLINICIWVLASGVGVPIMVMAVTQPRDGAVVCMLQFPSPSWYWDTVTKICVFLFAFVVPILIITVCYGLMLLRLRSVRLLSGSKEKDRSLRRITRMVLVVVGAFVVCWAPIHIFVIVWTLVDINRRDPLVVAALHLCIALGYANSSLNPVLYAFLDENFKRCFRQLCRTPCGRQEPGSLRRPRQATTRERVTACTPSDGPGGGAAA
T1 sequence (P33535 whole entry): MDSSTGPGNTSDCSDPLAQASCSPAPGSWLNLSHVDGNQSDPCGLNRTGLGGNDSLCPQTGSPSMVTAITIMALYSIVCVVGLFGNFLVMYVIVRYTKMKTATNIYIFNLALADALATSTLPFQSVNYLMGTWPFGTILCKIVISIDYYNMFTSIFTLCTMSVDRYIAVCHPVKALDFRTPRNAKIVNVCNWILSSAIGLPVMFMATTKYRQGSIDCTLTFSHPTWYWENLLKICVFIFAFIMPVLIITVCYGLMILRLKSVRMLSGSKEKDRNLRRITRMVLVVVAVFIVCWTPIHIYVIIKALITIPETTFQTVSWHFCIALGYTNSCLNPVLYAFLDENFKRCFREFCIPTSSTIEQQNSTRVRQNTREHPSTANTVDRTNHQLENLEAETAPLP
T2 sequence (P33533 whole entry): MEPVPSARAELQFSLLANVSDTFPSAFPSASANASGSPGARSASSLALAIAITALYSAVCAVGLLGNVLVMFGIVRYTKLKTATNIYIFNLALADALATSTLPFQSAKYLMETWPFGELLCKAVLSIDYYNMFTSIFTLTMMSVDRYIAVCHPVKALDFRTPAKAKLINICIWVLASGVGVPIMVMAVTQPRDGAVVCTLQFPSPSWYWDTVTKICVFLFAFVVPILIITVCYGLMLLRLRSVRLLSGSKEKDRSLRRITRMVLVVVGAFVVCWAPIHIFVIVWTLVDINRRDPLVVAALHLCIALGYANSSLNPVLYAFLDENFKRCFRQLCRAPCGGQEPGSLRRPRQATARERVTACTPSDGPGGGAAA
T4 sequence (P35372 whole entry): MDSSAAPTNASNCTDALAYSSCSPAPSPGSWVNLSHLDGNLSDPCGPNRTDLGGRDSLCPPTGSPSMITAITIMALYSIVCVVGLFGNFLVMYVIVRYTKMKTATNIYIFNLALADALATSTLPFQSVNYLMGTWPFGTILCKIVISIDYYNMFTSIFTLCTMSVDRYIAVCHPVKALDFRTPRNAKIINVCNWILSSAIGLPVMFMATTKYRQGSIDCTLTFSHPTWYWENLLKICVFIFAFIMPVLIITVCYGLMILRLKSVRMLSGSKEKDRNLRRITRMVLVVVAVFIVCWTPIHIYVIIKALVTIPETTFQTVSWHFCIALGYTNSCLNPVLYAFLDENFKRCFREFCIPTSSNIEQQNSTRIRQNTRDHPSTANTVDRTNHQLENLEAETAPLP

Regarding `COc1ccc(Oc2ncc(NC3CCCNC3)c(Oc3ccc(OC)cc3)n2)cc1` (stereo not shown) [Cpd 2], the pKi on mu opioid receptor is 5.61; on delta opioid receptor [1] it was 8.12. Moreover, on delta opioid receptor [2] (setting [6]), the negative logarithm of the EC50 (pEC50) was 6.08. Besides, the inhibition at 10 µM at delta opioid receptor [3] worked out at 8.16%.

Take `COc1ccc(Oc2ncc(NCC3CCCN3)c(Oc3ccc(OC)cc3)n2)cc1` (racemic) [Cpd 6]: the pKi was 5.74 on mu opioid receptor (setting [7]) and 7.36 on delta opioid receptor [1] (setting [8]). For the same molecule, the “GTPγS δ-opioid receptor % Inh @10 μM” value on delta opioid receptor [3] is 12.502%.

Take `COc1ccc(Oc2ncc(NC[C@@H]3CCCN3)c(Oc3ccc(OC)cc3)n2)cc1` [Cpd 1, [2,4-Bis-(4-methoxyphenoxy)pyrimidin-5-yl]pyrrolidin-2-(S)-ylmethylamine]: the results for the pKi at mu opioid receptor and on delta opioid receptor [1] were 5.41 and 8.23, respectively. Moreover, the pEC50 in test [4] (CHO-hMOR cell membranes, read-out: GTPγS μ-opioid receptor EC50) was 4.07. In test [4] (read-out: GTPγS μ-opioid receptor % Inh @10 μM), the inhibition at 10 µM is 19.5%.

“N-{2-[2,4-Bis-(4-methoxy-phenoxy)-pyrimidin-5-ylamino]ethyl}-guanidine [Cpd 44]”: the negative-log EC50 (pEC50) on delta opioid receptor [2] (setting [6]) was 5.95. In addition, the “GTPγS δ-opioid receptor % Inh @10 μM” value on delta opioid receptor [3] was 15.636%.

For the molecule `COc1ccc(Oc2nc(C#Cc3ccccc3)ncc2NC[C@@H]2CCCN2)cc1` [Cpd 4, [4-(4-Methoxy-phenoxy)-2-phenylethynyl-pyrimidin-5-yl]-pyrrolidin-2-(S)-ylmethyl-amine], the pKi on mu opioid receptor (setting [7]) is 5.35; at delta opioid receptor [1] (setting [8]), 7.79. This molecule also had a negative-log EC50 (pEC50) on delta opioid receptor [2] (GTPγS δ-opioid receptor EC50) of 5.99. Besides, the inhibition at 10 µM on delta opioid receptor [3] is 8.94%.

In the case of `COc1ccc(Oc2ncc(NCC3CCCN3)c(Oc3ccc(OC)cc3)n2)cc1` (stereo not shown) [Cpd 7], the pKi at mu opioid receptor (setting [7]) was 5.55; on delta opioid receptor [1] (setting [8]), 7.16. In addition, the negative logarithm of the EC50 (pEC50) on delta opioid receptor [2] (setting [6]) was 6.66. In addition, the “GTPγS δ-opioid receptor % Inh @10 μM” value on delta opioid receptor [3] came out at 20.645%.

Take `COc1ccc(Oc2ncc(NC3CCCC(N)C3)c(Oc3ccc(OC)cc3)n2)cc1` (stereo not shown) [Cpd 3]: the negative logarithm of the Ki (pKi) at mu opioid receptor (setting [7]) is 5.78; at delta opioid receptor [1] (setting [8]) it was 7.79. Also, at delta opioid receptor [2], the “GTPγS δ-opioid receptor Rel Efficacy” value was determined as 1.106. Further, the pEC50 at delta opioid receptor [2] (GTPγS δ-opioid receptor EC50) was 6.25 and 7.04 and 6.69. In addition, the “GTPγS δ-opioid receptor % Inh @10 μM” value on delta opioid receptor [3] was 19.733%. The inhibition at 10 µM at delta opioid receptor [3] was 12.8%.

For the molecule `COc1ccc(Oc2nc(Oc3cccc(OC)c3)ncc2NC[C@@H]2CCCN2)cc1` [Cpd 52], at delta opioid receptor [2], the “GTPγS δ-opioid receptor Rel Efficacy” value is recorded as 0.935 and the “GTPγS δ-Rel Efficacy @200 nM” value is reported as 0.624. This molecule gave a negative logarithm of the EC50 (pEC50) at delta opioid receptor [2] (GTPγS δ-opioid receptor EC50) of 7.29.

Consider `COc1ccc(Oc2nc(Sc3cccc(F)c3)ncc2NC[C@@H]2CCCN2)cc1` [Cpd 47], for which, on delta opioid receptor [2], the “GTPγS δ-opioid receptor Rel Efficacy” value worked out at 1.079 and the “GTPγS δ-Rel Efficacy @200 nM” value is 0.481. Further, the pEC50 at delta opioid receptor [2] (setting [6]) is 6.71. At delta opioid receptor [5], the pKi was 9.13.

Consider “[2-(3-Fluoro-phenoxy)-4-(4-methoxy-phenoxy)-pyrimidin-5-yl]-pyrrolidin-2-(S)-ylmethyl-amine [Cpd 46]”, for which, at delta opioid receptor [2], the “GTPγS δ-opioid receptor Rel Efficacy” value is recorded as 0.983 and the “GTPγS δ-Rel Efficacy @200 nM” value was 0.770. Moreover, on delta opioid receptor [2] (setting [6]), the pEC50 was 7.55. Also, at delta opioid receptor [5], the pKi is 9.54.

Consider `CCN(CC)C(=O)c1ccc(Oc2ncc(NC[C@@H]3CCCN3)c(Oc3ccc(OC)cc3)n2)cc1` [Cpd 5, N,N-Diethyl-4-{4-(4-methoxy-phenoxy)-5-[(pyrrolidin-2-(S)-ylmethyl)-amino]pyrimidin-2-yloxy}-benzamide], for which the pKi at mu opioid receptor and on delta opioid receptor [1] was 7.74 each time. The negative-log EC50 (pEC50) on delta opioid receptor [2] (setting [6]) is 5.58. The inhibition at 10 µM at delta opioid receptor [3] turned out to be 26.4%.

On to `COc1ccc(Oc2nc(Oc3cccc(Cl)c3)ncc2NC[C@@H]2CCCN2)cc1` [Cpd 51], for which, at delta opioid receptor [2], the “GTPγS δ-opioid receptor Rel Efficacy” value was found to be 1.040 and the “GTPγS δ-Rel Efficacy @200 nM” value was 0.859. Further, the negative logarithm of the EC50 (pEC50) at delta opioid receptor [2] (GTPγS δ-opioid receptor EC50) is 7.37.

In the case of `COc1ccc(Oc2nc(Nc3nccs3)ncc2NC[C@@H]2CCCN2)cc1` [Cpd 50], the “GTPγS δ-Rel Efficacy @200 nM” value at delta opioid receptor [2] was 0.143.

As to `COc1ccc(Oc2nc(Oc3cccnc3)ncc2NC[C@@H]2CCCN2)cc1` [Cpd 45], on delta opioid receptor [2], the “GTPγS δ-opioid receptor Rel Efficacy” value was 1.178. Further, at delta opioid receptor [2] (setting [6]), the pEC50 was 6.13. The pKi at delta opioid receptor [5] was 8.84.

What is called pKi is −log10 of the Ki, conventionally taken in molar units. One may read the pEC50 as the EC50 on a negative log10 scale, so that one unit is a factor of ten.
